Data: publication PMC10815238, “New N-Terminal Fatty-Acid-Modified Melittin Analogs with Potent Biological Activity” (International Journal of Molecular Sciences, 2024)

Legend:
[1] = Hydrophobicity assay (RP-HPLC retention time); assay type: physicochemical; conditions: chromatographic, ChromCore120 C18 column 4.6 x 250 mm 5 μm; 0.1 mg/mL in deionized water; A 0.1% TFA in water, B 0.1% TFA in acetonitrile; 5% B to 90% B over 30 min; 1 mL/min; UV 220 nm; three independent experiments
Text: The hydrophobicity, amphipathicity, and positive charge distribution of lipopeptides are crucial for their antimicrobial activities. Among these, hydrophobicity has been deemed essential for promoting a hydrophobic interaction with the lipid bilayer, leading to membrane disruption, cytoplasm leakage, and eventual cell death. Lipopeptides with different peptide sequences and chain lengths usually show different hydrophobicities, generating different RTs in the RP-HPLC analysis. The more hydrophobic the lipopeptide, the longer the RT on the column.
Each MDL was dissolved and diluted to 0.1 mg/mL in deionized water (obtained in-house) and then subjected to RP-HPLC on a ChromCore120 C18 column (4.6 × 250 mm, 5 μm) (NanoChrom, Suzhou, China) using 0.1% trifluoroacetic acid (TFA) (Macklin, Shanghai, China) in water as solvent A and 0.1% TFA in acetonitrile (Merck, Darmstadt, Germany) as solvent B. The elution gradient was as follows: 5% B to 90% B over 30 min, 90% B maintained for 2 min, and 90% B to 5% B over 1 min. The flow rate was 1 mL/min and measurements were taken at 220 nm. The retention time was recorded for each MDL.

[2] = CD measurements of secondary structure; assay type: physicochemical; conditions: 0.5 mg/mL, 25 °C
Method: The CD spectra of the MDLs were measured at 25 °C on a Chirascan spectrometer (Applied Photophysics, Surrey, UK) using a quartz cell with a 1.0 mm path length, recording from 180 to 260 nm. A scanning speed of 50 nm/min was used and the bandwidth was 1 nm. The optical path and slit width were 0.1 cm and 0.1 nm, respectively. […], 50% TFE (Macklin, Shanghai, China) was used to mimic the hydrophobic condition of the microbial membrane, and 25 mM SDS (Macklin, Shanghai, China) micelles were used to mimic the negatively charged prokaryotic membrane. The observed ellipticity was converted to molar ellipticity using the following equation: θ=θobs(MRW/10×c×l) where [θ] is the molar ellipticity (deg·cm^2·dmol^−1), θobs is the observed ellipticity corrected for the buffer at a given wavelength (mdeg), MRW is the mean residual molecular weight (molecular weight/number of amino acids), c is the peptide concentration (mg/mL), and l is the path length (cm). Assuming lipopeptides were a two-state model, the percentage in the α-helix structure of the MDLs was calculated using the following equation: α-helical content=−([θ]222 +2000)/30,000×100%

S. aureus ATCC 43300 = test: Salt sensitivity (MIC in the presence of physiological salts); assay type: cell-based, Staphylococcus aureus; design: key: MIC in μg/mL (two-fold dilutions 256 to 0.25 μg/mL); conditions: for MIC, MgCl2: 1 mM MgCl2, unit not given in Table 4; for MIC, FeCl3: 4 mM FeCl3, unit not given in Table 4; for MIC, KCl: 4.5 mM KCl; for MIC, KCl / MIC, NaCl: unit not given in Table 4; for MIC, NaCl: 150 mM NaCl; for MIC, Control: no added salt, unit not given in Table 4 (Table 3 MIC in μg/mL)
Method: (§1) MIC was determined using the broth microdilution method with minor modification. In brief, bacteria (S. aureus ATCC 43300, E. faecalis ATCC 29212, E. coli ATCC 25922, P. aeruginosa ATCC 27853, L. monocytogenes CVCC 3764, B. cereus CVCC 4101, S. Castellani CGMCC 1.1869, and the multidrug-resistant E. coli strain) were cultured in nutrient broth (NB) medium (Macklin, Shanghai, China) to the logarithmic phase and diluted to 1 × 10^6 colony forming units (CFUs)/mL. The MDLs were dissolved to a final concentration of 256~0.25 μg/mL in NB medium using two-fold dilutions. A total of 50 μL of different concentrations of the MDL solutions and an equal volume of bacterial suspension were added to a 96-well plate, which was then incubated at 37 °C for 18 h. The minimum concentrations of the MDLs with no visible growth of bacteria were defined as the corresponding MICs. Media containing bacteria without the MDLs were set as the negative control. Each measurement was performed independently three times.
(§2) This was carried out in triplicate and tested at least twice.

E. coli ATCC 25922 = test: as above; assay type: cell-based, Escherichia coli; design: key to MIC, NaCl / MIC, KCl / MIC, MgCl2: MIC in μg/mL (two-fold dilutions 256 to 0.25 μg/mL); conditions: for MIC, MgCl2: 1 mM MgCl2, unit not given in Table 4; for MIC, FeCl3: 4 mM FeCl3, unit not given in Table 4; for MIC, KCl: 4.5 mM KCl; for MIC, KCl / MIC, NaCl: unit not given in Table 4; for MIC, NaCl: 150 mM NaCl; for MIC, Control: no added salt, unit not given in Table 4 (Table 3 MIC in μg/mL)
Method: as §1, §2

Structure (SMILES) | RT, Min (RP-HPLC retention time, measure of hydrophobicity) [1] | α-Helix, % ([2]; 25 mM SDS) | β-Fold, % ([2]; 25 mM SDS) | α-Helix, % ([2]; 50% TFE) | β-Fold, % ([2]; 50% TFE) | α-Helix, % ([2]; PBS Buffer) | β-Fold, % ([2]; PBS Buffer) | MIC, MgCl2 (S. aureus ATCC 43300) | MIC, FeCl3 (S. aureus ATCC 43300) | MIC, KCl (S. aureus ATCC 43300) | MIC, NaCl (S. aureus ATCC 43300) | MIC, Control (S. aureus ATCC 43300) | MIC, MgCl2 (E. coli ATCC 25922) | MIC, FeCl3 (E. coli ATCC 25922) | MIC, KCl (E. coli ATCC 25922) | MIC, NaCl (E. coli ATCC 25922) | MIC, Control (E. coli ATCC 25922)
CC[C@H](C)[C@H](NC(=O)CNC(C)=O)C(=O)NCC(=O)N[C@@H](C)C(=O)N[C@H](C(=O)N[C@@H](CC(C)C)C(=O)N[C@@H](CCCCN)C(=O)N[C@H](C(=O)N[C@@H](CC(C)C)C(=O)N[C@H](C(=O)N[C@H](C(=O)NCC(=O)N[C@@H](CC(C)C)C(=O)N1CCC[C@H]1C(=O)N[C@@H](C)C(=O)N[C@@H](CC(C)C)C(=O)N[C@H](C(=O)N[C@@H](CO)C(=O)N[C@@H](Cc1c[nH]c2ccccc12)C(=O)N[C@H](C(=O)N[C@@H](CCCCN)C(=O)N[C@@H](CCCNC(=N)N)C(=O)N[C@@H](CCCCN)C(=O)N[C@@H](CCCNC(=N)N)C(=O)N[C@@H](CCC(N)=O)C(=O)N[C@@H](CCC(N)=O)C(N)=O)[C@@H](C)CC)[C@@H](C)CC)[C@@H](C)O)[C@@H](C)O)C(C)C)C(C)C [Peptide C2-Mel] | 12.247 ± 0.021 min | 20.9% | 19.9% | 26.5% | 17.8% | 6% | 32.8% | 16 | 16 | 4 | 4 | 4 | 32 | 32 | 16 | 16 | –
CCCC(=O)NCC(=O)N[C@H](C(=O)NCC(=O)N[C@@H](C)C(=O)N[C@H](C(=O)N[C@@H](CC(C)C)C(=O)N[C@@H](CCCCN)C(=O)N[C@H](C(=O)N[C@@H](CC(C)C)C(=O)N[C@H](C(=O)N[C@H](C(=O)NCC(=O)N[C@@H](CC(C)C)C(=O)N1CCC[C@H]1C(=O)N[C@@H](C)C(=O)N[C@@H](CC(C)C)C(=O)N[C@H](C(=O)N[C@@H](CO)C(=O)N[C@@H](Cc1c[nH]c2ccccc12)C(=O)N[C@H](C(=O)N[C@@H](CCCCN)C(=O)N[C@@H](CCCNC(=N)N)C(=O)N[C@@H](CCCCN)C(=O)N[C@@H](CCCNC(=N)N)C(=O)N[C@@H](CCC(N)=O)C(=O)N[C@@H](CCC(N)=O)C(N)=O)[C@@H](C)CC)[C@@H](C)CC)[C@@H](C)O)[C@@H](C)O)C(C)C)C(C)C)[C@@H](C)CC [Peptide C4-Mel] | 13.704 ± 0.005 min | 19.3% | 23.8% | 20.7% | 25.4% | 6.1% | 33.7% | 16 | 16 | 4 | 2 | 2 | 32 | 32 | 16 | 8 | 8
CCCCCC(=O)NCC(=O)N[C@H](C(=O)NCC(=O)N[C@@H](C)C(=O)N[C@H](C(=O)N[C@@H](CC(C)C)C(=O)N[C@@H](CCCCN)C(=O)N[C@H](C(=O)N[C@@H](CC(C)C)C(=O)N[C@H](C(=O)N[C@H](C(=O)NCC(=O)N[C@@H](CC(C)C)C(=O)N1CCC[C@H]1C(=O)N[C@@H](C)C(=O)N[C@@H](CC(C)C)C(=O)N[C@H](C(=O)N[C@@H](CO)C(=O)N[C@@H](Cc1c[nH]c2ccccc12)C(=O)N[C@H](C(=O)N[C@@H](CCCCN)C(=O)N[C@@H](CCCNC(=N)N)C(=O)N[C@@H](CCCCN)C(=O)N[C@@H](CCCNC(=N)N)C(=O)N[C@@H](CCC(N)=O)C(=O)N[C@@H](CCC(N)=O)C(N)=O)[C@@H](C)CC)[C@@H](C)CC)[C@@H](C)O)[C@@H](C)O)C(C)C)C(C)C)[C@@H](C)CC [Peptide C6-Mel] | 15.567 ± 0.006 min | 18.4% | – | 22.4% | – | 6.5% | – | 8 | 8 | 2 | – | – | 16 | 16 | 8 | 4 | 4
CCCCCCCC(=O)NCC(=O)N[C@H](C(=O)NCC(=O)N[C@@H](C)C(=O)N[C@H](C(=O)N[C@@H](CC(C)C)C(=O)N[C@@H](CCCCN)C(=O)N[C@H](C(=O)N[C@@H](CC(C)C)C(=O)N[C@H](C(=O)N[C@H](C(=O)NCC(=O)N[C@@H](CC(C)C)C(=O)N1CCC[C@H]1C(=O)N[C@@H](C)C(=O)N[C@@H](CC(C)C)C(=O)N[C@H](C(=O)N[C@@H](CO)C(=O)N[C@@H](Cc1c[nH]c2ccccc12)C(=O)N[C@H](C(=O)N[C@@H](CCCCN)C(=O)N[C@@H](CCCNC(=N)N)C(=O)N[C@@H](CCCCN)C(=O)N[C@@H](CCCNC(=N)N)C(=O)N[C@@H](CCC(N)=O)C(=O)N[C@@H](CCC(N)=O)C(N)=O)[C@@H](C)CC)[C@@H](C)CC)[C@@H](C)O)[C@@H](C)O)C(C)C)C(C)C)[C@@H](C)CC [Peptide C8-Mel] | 17.845 ± 0.013 min | 18.2% | – | 18.8% | – | 7% | – | 8 | 8 | – | 0.5 | 0.5 | 8 | 8 | 8 | 2 | 2
